Measured values taken from the NIST ThermoML archive (doi:10.1021/je060247x).

Details: Liquid

CCCCn1cc[n+](C)c1C.F[P-](F)(F)(F)(F)F [1-butyl-2,3-dimethylimidazolium hexafluorophosphate]
mass density [kg/m3]
Details | 313.15 K | 323.15 K | 333.15 K | 343.15 K | 353.15 K | 363.15 K | 373.15 K | 383.15 K | 393.15 K
100 kPa | 1339.6 | 1330.9 | 1321.9 | 1313.5 | 1305.4 | 1297.6 | 1290.6 | 1283.4 | 1276.1
1000 kPa | 1340 | 1331.4 | 1322.4 | 1314.1 | 1306 | 1298.2 | 1291.2 | 1284 | 1276.8
2000 kPa | 1340.7 | 1331.9 | 1323 | 1314.6 | 1306.6 | 1298.8 | 1291.9 | 1284.7 | 1277.4
3000 kPa | 1341.2 | 1332.5 | 1323.5 | 1315.2 | 1307.2 | 1299.4 | 1292.5 | 1285.3 | 1278.1
4000 kPa | 1341.6 | 1333.1 | 1324.1 | 1315.8 | 1307.8 | 1300.1 | 1293.2 | 1286 | 1278.8
5000 kPa | 1342.1 | 1333.6 | 1324.6 | 1316.3 | 1308.3 | 1300.7 | 1293.8 | 1286.6 | 1279.4
10000 kPa | 1344.6 | 1336.2 | 1327.2 | 1319.1 | 1311.1 | 1303.6 | 1296.7 | 1289.7 | 1282.6

CCCCCCCC[n+]1ccn(C)c1.F[B-](F)(F)F [1-methyl-3-octylimidazolium tetrafluoroborate]
mass density [kg/m3]
Details | 100 kPa | 1000 kPa | 2000 kPa | 3000 kPa | 4000 kPa | 5000 kPa | 10000 kPa
293.15 K | 1108.7 | 1109.1 | 1109.6 | 1110 | 1110.5 | 1110.9 | 1113.1
303.15 K | 1100.7 | 1101.1 | 1101.6 | 1102.1 | 1102.6 | 1103.1 | 1105.4
313.15 K | 1092.9 | 1093.4 | 1093.9 | 1094.4 | 1094.9 | 1095.4 | 1097.9
323.15 K | 1085.4 | 1085.9 | 1086.4 | 1087 | 1087.5 | 1088 | 1090.6
333.15 K | 1078.2 | 1078.7 | 1079.3 | 1079.8 | 1080.3 | 1080.9 | 1083.5
343.15 K | 1071.4 | 1072 | 1072.5 | 1073.1 | 1073.7 | 1074.2 | 1076.9
353.15 K | 1064.7 | 1065.2 | 1065.8 | 1066.4 | 1067 | 1067.6 | 1070.3
363.15 K | 1058.6 | 1059.1 | 1059.8 | 1060.4 | 1061 | 1061.6 | 1064.4
373.15 K | 1052.4 | 1053 | 1053.7 | 1054.3 | 1054.9 | 1055.5 | 1058.5
383.15 K | 1046.6 | 1047.2 | 1047.9 | 1048.5 | 1049.2 | 1049.8 | 1052.9
393.15 K | 1040.9 | 1041.5 | 1042.1 | 1042.8 | 1043.4 | 1044.1 | 1047.2
